Reference: the supplement of paper PMC10307832

How the values were obtained:
Test in all cases: relative viability (nuclei count vs DMSO), 5 days (fraction); higher = more cells survive
[1] = compound: CCN(CC)CCNC(=O)c1c(C)[nH]c(/C=C2\C(=O)Nc3ccc(F)cc32)c1C [Sunitinib] + Cc1nc(Nc2ncc(C(=O)Nc3c(C)cccc3Cl)s2)cc(N2CCN(CCO)CC2)n1 [Dasatinib] (partner 0.075 µM)
Procedure, shortened: (§1)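 Relative viability divides the nuclei count in treated wells by that in vehicle wells. Lung cancer cell lines were seeded in 1536-well plates, dosed by pin tool the next day, and fixed and stained after 5 days in one step with final 0.05% Triton X-100, 1% formaldehyde and 1 ug/ml Hoechst. Dosing was a single drug or a fixed anchor-drug dose plus five library-drug doses (not always all listed) in √10 steps, and values are medians of duplicate plates imaged at 4×.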

[2] = compound: CCN(CC)CCNC(=O)c1c(C)[nH]c(/C=C2\C(=O)Nc3ccc(F)cc32)c1C [Sunitinib] + Nc1nc2[nH]cc(CCc3ccc(C(=O)N[C@@H](CCC(=O)O)C(=O)O)cc3)c2c(=O)[nH]1 [Pemetrexed] (partner 0.2 µM)
Procedure, shortened: as §1

[3] = compound: CCN(CC)CCNC(=O)c1c(C)[nH]c(/C=C2\C(=O)Nc3ccc(F)cc32)c1C [Sunitinib] + C[C@@H](Oc1cc(-c2cnn(C3CCNCC3)c2)cnc1N)c1c(Cl)ccc(F)c1Cl [Crizotinib] (partner 1 µM)
Procedure, shortened: as §1

[4] = compound: CCN(CC)CCNC(=O)c1c(C)[nH]c(/C=C2\C(=O)Nc3ccc(F)cc32)c1C [Sunitinib] + CS(=O)(=O)CCNCc1ccc(-c2ccc3ncnc(Nc4ccc(OCc5cccc(F)c5)c(Cl)c4)c3c2)o1 [Lapatinib] (partner 2 µM)
Procedure, shortened: as §1

Cell Line	relative viability ([1]; first compound 0.02 µM)	relative viability ([1]; first compound 0.06325 µM)	relative viability ([1]; first compound 0.2 µM)	relative viability ([1]; first compound 0.6325 µM)	relative viability ([1]; first compound 2 µM)	relative viability ([2]; first compound 0.02 µM)	relative viability ([2]; first compound 0.06325 µM)	relative viability ([2]; first compound 0.2 µM)	relative viability ([2]; first compound 0.6325 µM)	relative viability ([2]; first compound 2 µM)	relative viability ([3]; first compound 0.02 µM)	relative viability ([3]; first compound 0.06325 µM)	relative viability ([3]; first compound 0.2 µM)	relative viability ([3]; first compound 0.6325 µM)	relative viability ([3]; first compound 2 µM)	relative viability ([4]; first compound 0.02 µM)	relative viability ([4]; first compound 0.06325 µM)	relative viability ([4]; first compound 0.2 µM)	relative viability ([4]; first compound 0.6325 µM)	relative viability ([4]; first compound 2 µM)
NCI-H1755	0.41	0.46	0.441	0.424	0.448	0.427	0.502	0.636	0.407	0.52	0.753	0.874	0.89	0.904	0.857	1.04	1.08	1.09	1.07	1.02
NCI-H2170	0.505	0.653	0.656	0.548	0.544	0.259	0.274	0.432	0.291	0.275	1.11	1.12	1.34	1.14	1.17	0.313	0.264	0.271	0.268	0.243
LXF-289	0.248	0.25	0.237	0.204	0.271	0.882	0.972	0.925	0.945	0.874	0.771	0.811	0.913	0.8		0.903		0.948	0.984	
PC-14	0.291	0.232	0.269	0.385	0.261	0.137	0.158	0.135	0.132	0.153		0.863	1.08	0.921	0.816	0.301	0.332	0.369	0.33	0.314
COR-L23	0.489	0.522	0.622	0.533	0.542	0.207	0.196	0.196	0.199	0.216	0.663	0.748	0.799	0.761	0.727	0.71	1.18	0.983	1.14	0.951
NCI-H647	0.164	0.291	0.228	0.183	0.161	0.189	0.197	0.187	0.209	0.193	0.988	0.998	1.19	1.15	0.941	0.939	1.26	1.19	1.13	0.913
NCI-H2347	0.255	0.292	0.302	0.257	0.394	0.415	0.446	0.419	0.44	0.458	0.665	0.795		0.731	0.822	0.873		1.17	1.03	0.95
EKVX	0.524	0.638	0.605	0.669	0.654	0.373	0.383	0.425	0.416	0.406	0.966	1.14	1.22		0.958	0.213	0.227	0.193	0.233	0.241
HCC-78	0.39	0.313	0.329	0.315	0.358	0.914	0.927	0.949	0.93		0.299		0.348		0.365	0.747		0.767		0.893
